# Laboratory results from patent US20250042880A1 (UNIVERSITY OF KENTUCKY RESEARCH FOUNDATION, priority 2021, published 2025).
# “Also recorded” adds a separate entry of the source.
# Legend:
# LS174T cells = experiment: Seahorse oxygen consumption rate assay; assay type: cell-based; conditions: rotenone/antimycin A replaced with compound
# Experimental: Seahorse oxygen consumption rate assay-Seahorse assays were conducted in accordance with a published protocol (50). Mitochondrial bioenergetic measurements were performed using the Seahorse XFe96 Extracellular Flow Analyzer (Agilent Technologies, Santa Clara, CA, USA) to measure the oxygen consumption rate (OCR) in different respiratory states. 2.5×10^4 LS174T cells in 80 μL medium were seeded in XF96 Cell Culture microplate and cultured overnight. Then cell culture media were replaced with Seahorse XF modified media before cells were treated. […] To test whether compounds were ETC complex I or III inhibitors, rotenone and antimycin A were replaced with DMSO, or compounds in DMSO solution.
# The Seahorse assays were performed in compliance with a pre-announced procedure (41). Oxygen consumption was measured using the Seahorse XFe96 Extracellular Flow Analyzer (Agilent Technologies, Santa Clara, CA, USA). 2.5×10^4 LS174T cells were seeded in XF96 Cell Culture microplate in 80 μL culture medium and incubated overnight. On the following day, the cell culture media were exchanged with Seahorse XF modified media. 1.0 μmol/L oligomycin, 1.0 μmol/L FCCP, and a mixture of 1.0 μmol/L rotenone and 1.0 μmol/L antimycin A were sequentially added during the measurements. […]
# [1] = test system: AMPK, mTOR and Wnt signaling; experiment: Western blotting of cell signaling pathways in CRC cells; assay type: cell-based
# Experimental: Western blotting-Western blotting was carried out following previously reported procedures (50). Cells were incubated in 6-well plates and were treated with either DMSO or compounds dissolved in DMSO at indicated concentrations. Cells were lysed in 500 μl of lysis buffer: 50 mM HEPES, 100 mM NaCl, 2 mM EDTA, 1% (v/v) glycerol, 50 mM NaF, 1 mM Na3VO4, 1% (v/v) Triton X-100, with protease inhibitors (Sigma, P8340). The cell lysates were centrifuged (18,000×g, 10 min) and then 6× protein loading buffer was added to the suppernatants. The samples were boiled for 3 min and analyzed by standard Western blotting methods with the indicated antibodies.
# Western blotting was performed as previously reported procedures (41). Cells were split into 6-well plates and incubated for 24 hours. Either DMSO or compounds dissolved in DMSO at indicated concentrations were added to each well for another 24 hours. Cells were lysed in 500 μL of lysis buffer containing 50 mmol/L HEPES, 100 mmol/L NaCl, 2 mmol/L EDTA, 1% (v/v) glycerol, 50 mmol/L NaF, 1 mmol/L Na3VO4, 1% (v/v) Triton X-100, and protease inhibitors (Sigma, P8340). Cell lysates were centrifuged for 10 minutes (18,000×g), and the supernatants were mixed with 6×protein loading buffer and boiled for 3 minutes. The samples were analyzed by standard Western blotting methods using the appropriate antibodies.
# LS174T xenografts = LS174T xenografts in SCID mice; assay type: in vivo, mouse
# Experimental: In vivo evaluation of anti-cancer activity in LS174T xenografts—The mouse studies were conducted with the approval of the University of Kentucky Institutional Animal Care and Use Committee (2020-3531). All methods were carried out in compliance with the relevant guidelines and regulations according to protocols. The LS174T cells in exponential growth phase were trypsinized and resuspended in 50% Matrigel (Corning, Glendale, Arizona). Cells (1.2×10^6) were subcutaneously injected on the lower flanks of severe combined immunodeficient mice. The tumor volumes were calculated based on the formula Length×width^2/2. When tumors reached an average volume of 100 mm^3, the mice were divided into control and treatment groups (3 male and 3 female mice/group, two tumors on each mouse). After tumors were established, BAY-876 was given to the mice by gavage feeding to the BAY-876 group at the dose of 3 mg/kg/day. DBI-1 was daily intraperitoneally (i.p.) administered to the DBI-1 group at dose of 40 mg/kg mouse body weight. Mice in the combination treatment group were administered both oral BAY-876 at the dose of 3 mg/kg/day and i.p. DBI-1 at dose of 40 mg/kg mouse body weight. Tumors and mouse weights were measured every three days and the experiment was stopped at day 12. Tumors were isolated and fixed in 10% neutral buffered formalin. Tumor sections were analyzed with H&E and Ki-67 staining at Markey Cancer Center's Biospecimen Procurement and Translational Pathology Shared Resource Facility (BPTP SRF).
# DLD-1 CRC cells = conditions: cited from earlier work
# OVCAR-3 cells = conditions: growth inhibition; cited from earlier work
# Pt2377 cells = experiment: Cell proliferation inhibition assay, Pt2377; assay type: cell-based
# Experimental: Cell proliferation inhibition assay-Cell proliferation inhibition assay was performed as previously reported (48). All compounds to be tested were dissolved at 10 mM in DMSO. The cells were seeded into 12-well plates at a density of 40,000 cells per well in 1 mL of culture medium and were cultured overnight at 37° C. Either 1 μL of the compounds or the vehicle control (DMSO) was added to the cells. After 5 days, the medium was removed, and 200 μL of 0.25% trypsin was added. The cells were resuspended in 800 μL phosphate-buffered saline (PBS) and counted with Vi-CELL XR 2.03 (Beckman Coulter, Inc. USA). The ratio R of the number of viable cells in the compound-treated group to the number of viable cells in the DMSO-treated group was called relative growth rate, and the growth inhibition was calculated as (1−R)*100.
# [2] = administered in vivo; cited from earlier work
SMILES,oxygen consumption rate (OCR) (LS174T cells),"effects on AMPK (pAMPK, pACC), mTOR (p70S6K, pS6) and Wnt (Axin2, c-Myc) signaling ([1]; 3 μM alone, LS174T cells, 24 hours)","AMPK phosphorylation (activation) ([1]; 3 μM, LS174T CRC cells)","tumor growth (LS174T xenografts; BAY-876 3 mg/kg/day oral, DBI-1 40 mg/kg/day i.p., two weeks)","toxicity based on mice body weight growth rate (LS174T xenografts; BAY-876 3 mg/kg/day, DBI-1 40 mg/kg/day)",IC50 (DLD-1 CRC cells) [nM],IC50 (OVCAR-3 cells) [nM],inhibition of proliferation of Pt2377 cells (Pt2377 cells),oral availability [2]
"O=c1c(-c2ccc(Cl)c(Cl)c2)coc2cc(OCCN3CCN(CCO)CC3)ccc12 [DBI-6, 3-(3,4-dichlorophenyl)-7-(2-(4-(2-hydroxyethyl)piperazin-1-yl)ethoxy)-4H-chromen-4-one]",suppressed OCR in a similar manner to rotenone/antimycin A,activated AMPK signaling (pAMPK and pACC) and inhibited mTOR signaling (p70S6K and pS6); also recorded: more active than DBI-1,best activity in AMPK activation,,,,,,
"Cc1c(NC(=O)c2cc(C(N)=O)nc3cc(F)ccc23)c(C(F)(F)F)nn1Cc1ccc(C#N)cc1 [BAY-876, N^4-[1-(4-cyanobenzyl)-5-methyl-3-(trifluoromethyl)-1H-pyrazol-4-yl]-7-fluoroquinoline-2,4-dicarboxamide]",,,,inhibited tumor growth,No significant toxicity,2,60,inhibited the proliferation of these cell lines at nanomolar concentrations,orally available
